This is an account of results in patent publication US10053422B2, “Compounds for the treatment of mTOR pathway related diseases” (Pitney Pharmaceuticals Pty Limited, priority 2012, dated 2018).

In assay [1] the test system is CHO (Chinese hamster ovarian cells). In words: SRB cell proliferation assay, CHO. In kind it is cell-based. The conditions noted are these: Cricetulus griseus. How it is done: (§1) Cell proliferation was assessed using the sulforhodamine B (SRB) assay. Cells seeded in 96-well plate (2,000-3,000 cell/well) were treated with MPL (0, 1, 5, 10, 25, 50 and 100 μmol/L) for 72 h. Cells were then fixed, washed and stained with 100 μl of 0.4% (w/v) SRB dissolved in 1% acetic acid. Unbound dye was removed by five washes with 1% acetic acid before air drying. Bound SRB was solubilized with 100 μl of 10 mM Tris base (pH 10.5) and the absorbance read at 570 nm. Exactly the same procedure was used to assess MPL-SO2. Both agents were dissolved in ethanol and diluted with media to give the final concentrations required for cell culture assays.

For another assay, the system named is OVCAR-3 cells. In words: SRB cell proliferation assay, OVCAR-3. The format is cell-based, human. As to the method:
as §1

The next assay has as its system A2780 cells. In words: SRB cell proliferation assay, A2780. The format is cell-based, human. How it is done:
as §1

For assay [2], the system named is HUVEC (human umbilical vein endothelial cells). In words: SRB cell proliferation assay, HUVEC. The format is cell-based. As to the method:
as §1

Another assay deals with nematodes. The conditions noted are these: previously shown; cited from earlier work.
The test system of the next assay is HeLa cells. In words: SRB cell proliferation assay, HeLa. The format is cell-based. The note with it: Homo sapiens, epithelial (adenocarcinoma) (Table 2), read-out: IC50 in suppressing proliferation. How it is done: as §1
A further assay concerns IGROV-1 cells. In words: SRB cell proliferation assay, IGROV-1. In kind it is cell-based. The conditions noted are these: Homo sapiens; IGROV-1, ovarian cancer (Table 2); read-out: IC50 in suppressing proliferation. How it is done: as §1
Another assay relates to T47-D cells. The assay can be described thus: SRB cell proliferation assay, T47-D. The note with it: Homo sapiens, T47D, breast cancer (Table 2), read-out: IC50 in suppressing proliferation. In kind it is cell-based. How it is done: as §1
The subject of the next assay is T98G cells (glioma). In words: SRB cell proliferation assay, T98G. In kind it is cell-based. The note with it: Homo sapiens, glioma (Table 2), read-out: IC50 in suppressing proliferation. How it is done: as §1
The next assay concerns MDA-MB-231 cells. The assay can be described thus: SRB cell proliferation assay, MDA-MB-231. The conditions noted are these: Homo sapiens. The format is cell-based. As to the method: as §1
The subject of a further assay is MCF-7 cells. The assay can be described thus: SRB cell proliferation assay, MCF-7. In kind it is cell-based. The note with it: Homo sapiens, MCF7. How it is done:
as §1

The subject of the next assay is HaCat keratinocyte. In words: SRB cell proliferation assay, HaCat. The format is cell-based. The conditions noted are these: Homo sapiens, keratinocyte (Table 2), read-out: IC50 in suppressing proliferation. How it is done: as §1
Assay [3] relates to HCT-116 cells (colorectal cancer). In words: SRB cell proliferation assay, HCT-116. The format is cell-based. The note with it: Homo sapiens; HCT-116, colorectal cancer (Table 2); read-out: IC50 in suppressing proliferation. As to the method:
as §1

The next assay concerns U87 cells (glioblastoma). In words: SRB cell proliferation assay, U87. The format is cell-based. The conditions noted are these: Homo sapiens, U-87 MG. How it is done:
as §1

Another assay has as its system cancer cell lines. In words: SRB cell proliferation assay, range of cancer cell lines (general statements). The format is cell-based. How it is done: as §1
In brief, MPL and MPL-SO2 were tested in vitro against a wide range of cancer cell-lines with extensively different disease characteristics. For further detailed studies, human ovarian cancer cell lines OVCAR-3 and A2780 were chosen. Additionally, normal human ovarian surface epithelial cells (HOSE) and were cultured in the presence of MPL (0, 5, 10, 25, 50 and 100 μM) for 72 h. Cell viability was assessed using Trypan blue assay (FIG. 9). Similarly, effect of MPL on the growth of normal epithelial, endothelial, embryonic and fetal cells were investigated (FIG. 10) while cell proliferation was assessed using the SRB assay (FIG. 11). Control (vehicle treated) cells were taken to present 100% proliferation and the MPL treated groups are expressed as percentage of control±SEM. Each drug concentration was tested in quadruplicate and each experiment was repeated at least twice. For statistical comparisons, each drug treated group is compared to the control group using Student's t test. To examine concentration dependent drug effect, analysis of variance (ANOVA) was used. P values are: *=<0.05; **<0.01 and ***=<0.001, **** p<0.0001. […] In order to find out if the MPL effect is mediated through the nicotinic acetyl choline receptor and in particular the nACHR7 subtype, cells were pretreated with antagonists and then exposed to MPL (FIG. 12).

In the next assay the test system is 1A9 cells. In words: SRB cell proliferation assay, 1A9. The format is cell-based. The conditions noted are these: Homo sapiens. As to the method:
as §1

In assay [4] the test system is HT-29 5m11 cells (colorectal cancer). In words: SRB cell proliferation assay, HT-29 5m11. The note with it: Homo sapiens; HT-29 5m11, colorectal cancer (Table 2); read-out: IC50 in suppressing proliferation. In kind it is cell-based. As to the method:
as §1

For the next assay, the system named is 3T3 fibroblast. In words: SRB cell proliferation assay, 3T3. In kind it is cell-based. The note with it: 3T3, fibroblast (Table 2); read-out: IC50 in suppressing proliferation. As to the method: as §1
The next assay deals with U87 glioma cells. In words: Autophagy (vacuoles, LC3-II), U87. In kind it is cell-based. The conditions noted are these: U87 glioma cells. From the text:
Autophagy is a characteristic of mTOR inhibition.
Concentration-dependent conversion of LC3-I to LC3-II confirms the increasing phenomenon of autophagy in these cells.

The test system of the next assay is LN-18 cells (glioma). In words: SRB cell proliferation assay, LN-18. In kind it is cell-based. The note with it: Homo sapiens; LN-18, glioma (Table 2); read-out: IC50 in suppressing proliferation. How it is done:
as §1

The test system of assay [5] is HT-29 cells (colorectal cancer). The assay can be described thus: SRB cell proliferation assay, HT-29. In kind it is cell-based. The note with it: Homo sapiens; HT-29, colorectal cancer (Table 2); read-out: IC50 in suppressing proliferation. As to the method: as §1
The subject of another assay is SKOV-3 cells. In words: SRB cell proliferation assay, SKOV-3. The format is cell-based. The note with it: Homo sapiens, SK-OV-3. As to the method:
as §1

Setting [6] is: CHO = Chinese hamster ovarian cells (Table 3), read-out: IC50 μM CHO.
Where [7] appears, read: OVCAR-3, human epithelial ovarian cancer (Table 3), read-out: IC50 μM OVCAR-3.
Setting [8] is: A2780, human epithelial ovarian cancer (Table 3), read-out: IC50 μM A2780.
[9] abbreviates: HUVEC = human umbilical vein endothelial cells (Table 3), read-out: IC50 μM HUVEC.

Entries after “also recorded” stand apart in the source; their conditions may differ. Read-outs that look alike come from different tables or passages of the source.

Consider `CC(C#N)(COc1cc(F)ccc1Cl)NC(=O)c1ccc(OC(F)(F)F)cc1` (stereo not shown) [AAD 004], for which the IC50 in assay [1] (setting [6]) was 57.3 µM; with OVCAR-3 cells (setting [7]), 18.6 ± 2.4 µM; in the assay on A2780 cells (setting [8]) it was 27.3 ± 0.5 µM; in assay [2] (setting [9]), 93 µM.
As for `CC(C#N)(COc1cc(F)c(F)cc1Br)NC(=O)c1ccc(OC(F)(F)F)cc1` (stereo not shown) [AAD 1336], the IC50 in assay [1] (setting [6]) was found to be 31.8 µM; in the assay on OVCAR-3 cells (setting [7]), 14.7 ± 1.25 µM; in the assay with A2780 cells (setting [8]) it was 17 ± 1.2 µM; in assay [2] (setting [9]) it was 61.3 µM. The “ratio of IC50 values (normal cell/cancer cell)” value in the assay on OVCAR-3 cells (results of Table 3) was “particularly high activity”.
With `CC(C#N)(COc1cc(F)c(F)cc1C(F)(F)F)NC(=O)c1ccc(OC(F)(F)F)cc1` (stereo not shown) [AAD 1470], the IC50 is 32.2 µM in assay [1] (setting [6]), 12.9 ± 0.3 µM with OVCAR-3 cells (setting [7]), 19.5 ± 4.1 µM with A2780 cells (setting [8]) and 74 µM in [2] (setting [9]). Besides, in the assay with OVCAR-3 cells (results of Table 3), the “ratio of IC50 values (normal cell/cancer cell)” value is “particularly high activity”.
With `C[C@@](C#N)(COc1cc(C#N)ccc1C(F)(F)F)NC(=O)c1ccc(SC(F)(F)F)cc1` [AAD 2224, N-[(1R)-1-cyano-2-(5-cyano-2-trifluoromethyl-phenoxy)-1-methyl-ethyl]-4-trifluoromethylsulfanyl-benzamide], the anthelmintic activity result in the assay with nematodes is reported as “no anthelmintic activity”. In addition, the IC50 was 23.4 µM in [1] (setting [6]), 8 ± 0.7 µM in the assay with OVCAR-3 cells (setting [7]), 14.8 ± 0.45 µM with A2780 cells (setting [8]) and 109 µM in assay [2] (setting [9]). Moreover, the “potency of MPL-(R) compared with MPL-(S)” value with OVCAR-3 cells (results of Table 3) was “equipotent”. For the same molecule, the “ratio of IC50 values (normal cell/cancer cell)” value with OVCAR-3 cells (results of Table 3) is reported as “particularly high activity”.
On to `C[C@](C#N)(COc1cc(C#N)ccc1C(F)(F)F)NC(=O)c1ccc(S(=O)(=O)C(F)(F)F)cc1` [MPL-SO2, monepantel sulphone], for which the IC50 in the assay on HeLa cells came to 18.2 ± 2.6 µM; in the assay with IGROV-1 cells it was 4.4 ± 1.5 µM; in the assay on T47-D cells it was 10.2 ± 0.6 µM; with T98G cells (glioma), 25.4 ± 0.28 µM; in the assay with MDA-MB-231 cells (MDA-MB-231, breast cancer (Table 2), read-out: IC50 in suppressing proliferation), 21.6 µM; with MDA-MB-231 cells (MDA-MB-231, breast cancer, 72 h, SRB assay (Table 1), read-out: IC50), 23.6 µM. The IC50 is 8 ± 0.7 µM in the assay on MCF-7 cells (MCF-7, breast cancer (Table 2), read-out: IC50 in suppressing proliferation); 7.3 µM in the assay on MCF-7 cells (MCF-7, breast cancer, 72 h, SRB assay (Table 1), read-out: IC50); 73.7 ± 6 µM in assay [1] (CHO (Table 2), read-out: IC50 in suppressing proliferation); 73.7 µM in assay [1] (CHO, 72 h, SRB assay (Table 1), read-out: IC50); 42.7 ± 8 µM in the assay on HaCat keratinocyte; 22.5 ± 5.7 µM in [3]. The IC50 in the assay with OVCAR-3 cells (Homo sapiens, OVCAR-3, ovarian cancer (Table 2), read-out: IC50 in suppressing proliferation) came to 5.5 ± 1.3 µM; with OVCAR-3 cells (Homo sapiens, OVCAR-3, ovarian cancer, 72 h in vitro treatment, SRB assay (Table 1), read-out: IC50) it was 5.5 µM; in the assay with A2780 cells (Homo sapiens, A2780, ovarian cancer (Table 2), read-out: IC50 in suppressing proliferation) it was 4.2 µM; with A2780 cells (Homo sapiens, A2780, ovarian cancer, 72 h, SRB assay (Table 1), read-out: IC50), 4.2 µM; in assay [2] (Homo sapiens, HUVEC (Table 2), read-out: IC50 in suppressing proliferation), 47 µM; in assay [2] (Homo sapiens, HUVEC, 72 h, SRB assay (Table 1), read-out: IC50) it was 47.8 µM. For the same molecule, the IC50 in the assay on U87 cells (glioblastoma) (U87, glioblastoma, 72 h, SRB assay (Table 1), read-out: IC50) turned out to be 20.5 µM; in the assay with U87 cells (glioblastoma) (U87, glioma (Table 2), read-out: IC50 in suppressing proliferation) it was 20.5 ± 1 µM; in the assay with 1A9 cells (1A9, ovarian cancer (Table 2), read-out: IC50 in suppressing proliferation), 3.42 ± 0.1 µM; in the assay on 1A9 cells (1A9, ovarian cancer, 72 h, SRB assay (Table 1), read-out: IC50), 4.8 µM; in [4], 21.7 µM; with 3T3 fibroblast, 11.2 ± 1.1 µM. The IC50 in the assay on LN-18 cells (glioma) amounted to 6.64 ± 0.71 µM; in assay [5], 2.75 ± 0.7 µM; in the assay on SKOV-3 cells (SKOV-3, ovarian cancer (Table 2), read-out: IC50 in suppressing proliferation) it was 26 µM; in the assay on SKOV-3 cells (SKOV-3, ovarian cancer, 72 h, SRB assay (Table 1), read-out: IC50), 26 µM. Also, the “viability of cancer cell-lines growing in culture” value with cancer cell lines was “reduced viability”. In addition, in the assay on cancer cell lines (SRB proliferation assay), the “potency compared with MPL in suppressing cancer cell proliferation” value was “as potent as MPL; also recorded: as effective as MPL”. For the same molecule, in the assay on U87 glioma cells, the “formation of vacuoles (autophagy)” value was “formation of vacuoles”.
